Among the data in patent US8039490B2, “Benzoyl-piperidine derivatives as dual modulators of the 5-HT2A and D3 receptors” (Hoffmann-La Roche Inc., priority 2006, dated 2011) are Ki values, retold here.

Experiment [1] has as its target T1, human 5-HT2A serotonin receptor (Homo sapiens, UniProt P28223).
T1 construct: expressed in transfected cells; host or cells: HEK-293 EBNA cells (transient transfection), membrane preparation
Kind of experiment: Radioligand binding, human 5-HT2A receptor ([3H]-ketanserin). To be noted: second value of the cell; membranes of transfected HEK-293 EBNA cells, 1.1 nM [3H]-ketanserin; read-out: Ki(nM) D3/5HT2A/D2: 5HT2A. As for the experimental part: (§1) The cells were harvested 48 h post-transfection, washed three times with cold PBS and stored at −80° C. prior to use. The pellet was suspended in cold 50 mM Tris-HCl buffer containing 10 mM EDTA (pH 7.4) and homogenized with a Polytron (Kinematica AG, Basel, Switzerland) for 20-30 sec at 12.000 rpm. After centrifugation at 48.000×g for 30 min at 4° C., the pellet was resuspended in cold 10 mM Tris-HCl buffer containing 0.1 mM EDTA (pH 7.4), homogenized, and centrifuged as above. This pellet was further resuspended in a smaller volume of ice cold 10 mM Tris-HCl buffer containing 0.1 mM EDTA (pH 7.4) and homogenized with a Polytron for 20-30 sec at 12.000 rpm. The protein content of this homogenate was determined with the Bio-Rad (Bradford) Protein Assay (Biorad Laboratories GmbH, München, Germany) according to the instructions of the manufacturer using gamma globulin as the standard. This homogenate was stored at −80° C. in aliquots and thawed immediately prior to use.
(§2) Aliquots of membrane preparations were thawed at RT, resupended in assay buffer (D2, D3: 50 mM Tris-HCl, 120 mM NaCl, 5 mM MgCl2, 1 mM EDTA, 5 mM KCl, 1.5 mM CaCl2, pH=7.4; 5-HT2A: 50 mM Tris-HCl, 10 mM MgCl2, 1 mM EGTA, pH=7.4), homogenized with a Polytron for 20-30 sec at 12.000 rpm and adjusted to a final concentration of approximately 7.5 μg protein/well (D2, D3) and 15 μg protein/well (5-HT2A), respectively.
(§3) The binding affinity (Ki) of the compounds was determined using radioligand binding. […] The nonspecific binding was determined with equally composed reaction mixtures in the presence of 10 μM unlabelled spiperone. Per well 45 μl of Microscint 40 (Perkin Elmer, Schwerzenbach, Switzerland) was added, plates for sealed, shaken for 20 min and counted for 3 min on a Topcount Microplate Scintillation Counter (Canberra Packard SA, Zürich, Switzerland) with quenching correction.
(§4) The CPM value for each duplicate of a concentration of competing compound was averaged (y1), then the % specific binding was calculated according to the equation (((y1−non-specific)/(total binding-non-specific))×100). Graphs were plotted with the % specific binding using XLfit, a curve fitting program that iteratively plots the data using Levenburg Marquardt algorithm. The single site competition analysis equation used was y=A+((B−A)/(+((x/C)^D))), where y is the % specific binding, A is the minimum y, B is the maximum y, C is the IC50, x is the log10 of the concentration of the competing compound and D is the slope of the curve (the Hill Coefficient). […] The affinity constant (Ki) was calculated using the Cheng-Prusoff equation KI =(IC50/1+([L]/Kd), where [L] is the concentration of radioligand and Kd is the dissociation constant of the radioligand at the receptor as determined by the saturation isotherm.

Experiment [2] addresses T2, human D3 dopamine receptor (Homo sapiens, UniProt P35462).
T2 construct: expressed in transfected cells; host or cells: HEK-293 EBNA cells (transient transfection), membrane preparation
Kind of experiment: Radioligand binding, human D3 receptor ([3H]-spiperone). Particulars: first value of the cell; membranes of transfected HEK-293 EBNA cells, 0.5 nM [3H]-spiperone; read-out: Ki(nM) D3/5HT2A/D2: D3. As for the experimental part: as §1, §2, §3, §4

Experiment [3] concerns the target T3, human D2 dopamine receptor (Homo sapiens, UniProt P14416).
T3 construct: expressed in transfected cells; host or cells: HEK-293 EBNA cells (transient transfection), membrane preparation
In words: Radioligand binding, human D2 receptor ([3H]-spiperone). To be noted: third value of the cell; membranes of transfected HEK-293 EBNA cells, 0.7 nM [3H]-spiperone; read-out: Ki(nM) D3/5HT2A/D2: D2. As for the experimental part:
as §1, §2, §3, §4

T2 sequence (P35462 whole entry): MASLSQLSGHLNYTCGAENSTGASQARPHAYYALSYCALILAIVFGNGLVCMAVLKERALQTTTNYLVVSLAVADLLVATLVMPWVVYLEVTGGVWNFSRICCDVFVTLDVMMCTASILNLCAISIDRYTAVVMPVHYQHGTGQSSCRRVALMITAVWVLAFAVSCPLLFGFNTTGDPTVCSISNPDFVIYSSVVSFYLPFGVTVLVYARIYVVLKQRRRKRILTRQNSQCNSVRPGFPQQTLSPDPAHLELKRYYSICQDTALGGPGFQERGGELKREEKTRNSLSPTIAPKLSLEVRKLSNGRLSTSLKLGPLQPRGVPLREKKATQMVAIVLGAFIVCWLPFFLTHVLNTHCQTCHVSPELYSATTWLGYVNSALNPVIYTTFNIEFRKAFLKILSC
T1 sequence (P28223 whole entry): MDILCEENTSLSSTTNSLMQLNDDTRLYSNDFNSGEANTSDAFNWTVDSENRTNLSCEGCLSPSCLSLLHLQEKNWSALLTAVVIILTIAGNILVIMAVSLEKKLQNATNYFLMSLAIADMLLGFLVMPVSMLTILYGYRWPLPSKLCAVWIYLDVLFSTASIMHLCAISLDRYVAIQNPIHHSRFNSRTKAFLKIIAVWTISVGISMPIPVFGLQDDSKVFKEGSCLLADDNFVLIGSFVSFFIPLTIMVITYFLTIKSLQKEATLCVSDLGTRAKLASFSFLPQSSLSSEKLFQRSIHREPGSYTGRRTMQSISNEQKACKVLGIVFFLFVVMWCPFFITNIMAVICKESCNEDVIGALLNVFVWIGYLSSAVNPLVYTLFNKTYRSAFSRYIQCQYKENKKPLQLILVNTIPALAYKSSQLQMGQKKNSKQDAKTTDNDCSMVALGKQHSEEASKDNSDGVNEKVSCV
T3 sequence (P14416 whole entry): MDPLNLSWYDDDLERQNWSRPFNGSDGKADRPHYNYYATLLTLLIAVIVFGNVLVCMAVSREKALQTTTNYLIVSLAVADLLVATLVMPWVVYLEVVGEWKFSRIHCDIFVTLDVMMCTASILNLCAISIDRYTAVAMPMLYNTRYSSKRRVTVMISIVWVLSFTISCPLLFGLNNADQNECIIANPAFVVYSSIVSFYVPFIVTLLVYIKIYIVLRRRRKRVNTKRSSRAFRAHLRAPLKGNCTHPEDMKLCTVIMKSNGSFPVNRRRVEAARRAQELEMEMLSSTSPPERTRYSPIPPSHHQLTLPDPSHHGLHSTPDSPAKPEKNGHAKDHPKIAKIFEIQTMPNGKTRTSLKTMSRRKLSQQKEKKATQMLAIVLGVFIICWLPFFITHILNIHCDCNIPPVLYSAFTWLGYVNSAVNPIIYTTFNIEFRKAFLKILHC

In the case of `O=C(N[C@H]1CC[C@H](CCN2CCC(C(=O)c3ccc(F)cc3)CC2)CC1)c1ccc(S(=O)(=O)c2ccc(Cl)cc2)cc1` [Example 23, 4-(4-Chloro-benzenesulfonyl)-N-trans (4-{2-[4-(4-fluoro-benzoyl)-piperidin-1-yl]-ethyl}-cyclohexyl)-benzamide], the figures for the Ki in experiment [1], in experiment [2] and in experiment [3] were 5 nM, 72 nM and 73 nM, respectively.

Take `O=C(CO)NC1CCC(CCN2CCC(C(=O)c3ccc(F)cc3F)CC2)CC1` (stereo not drawn) [Example 63A14, N-(4-{2-[4-(2,4-Difluoro-benzoyl)-piperidin-1-yl]-ethyl}-cyclohexyl)-2-hydroxy-acetamide]: the figures for the Ki in experiment [1], in experiment [2] and in experiment [3] were 83 nM, 44 nM and 8540 nM, respectively.

For the compound `Cc1cc(CC(=O)N[C@H]2CC[C@H](CCN3CCC(C(=O)c4ccc(F)cc4)CC3)CC2)on1` [Example 30A36], the values for the Ki in experiment [1], in experiment [2] and in experiment [3] were 5 nM, 26 nM and 1280 nM, respectively.

Regarding `CN(C)C(=O)N[C@H]1CC[C@H](CCN2CCC(C(=O)c3ccc(F)cc3)CC2)CC1` [Example 42A7, Trans-3-(4-{2-[4-(4-Fluoro-benzoyl)-piperidin-1-yl]-ethyl}-cyclohexyl)-1,1-dimethyl-urea], the Ki in experiment [1] is 26 nM; in experiment [2] it was 86 nM; in experiment [3] it was 176 nM.

For `CC(=O)OCC(=O)N[C@H]1CC[C@H](CCN2CCC(C(=O)c3ccc(F)cc3)CC2)CC1` [Example 30A58, Acetic acid trans (4-{2-[4-(4-fluoro-benzoyl)-piperidin-1-yl]-ethyl}-cyclohexylcarbamoyl)-methyl ester], the Ki turned out to be 15 nM in experiment [1], 30 nM in experiment [2] and 2070 nM in experiment [3].

For `Cc1nc(-c2cccc(C(=O)N[C@H]3CC[C@H](CCN4CCC(O)(C(=O)c5ccc(F)cc5)CC4)CC3)c2)no1` [Example 57, N-trans (4-{2-[4-(4-Fluoro-benzoyl)-4-hydroxy-piperidin-1-yl]-ethyl}-cyclohexyl)-3-(5-methyl-[1,2,4]oxadiazol-3-yl)-benzamide], the Ki was found to be 21 nM in experiment [1], 53 nM in experiment [2] and 1330 nM in experiment [3].

Turning to `O=C(Nc1ccc(Cl)cc1)N[C@H]1CC[C@H](CCN2CCC(C(=O)c3ccc(F)cc3F)CC2)CC1` [Example 64, 1-(4-Chloro-phenyl)-3-trans (4-{2-[4-(2,4-difluoro-benzoyl)-piperidin-1-yl]-ethyl}-cyclohexyl)-urea], the Ki was 26 nM in experiment [1], 4 nM in experiment [2] and 4000 nM in experiment [3].

Consider `O=C(NC[C@@H]1C[C@H]1CN1CCC(C(=O)c2ccc(F)cc2)CC1)Nc1ccc(Cl)cc1` (relative stereo) [Example 46, 1-(4-Chloro-phenyl)-3-{Trans-2-[4-(4-fluoro-benzoyl)-piperidin-1-ylmethyl]-cyclopropylmethyl}-urea], for which the Ki came out at 2 nM in experiment [1], 15 nM in experiment [2] and 30 nM in experiment [3].

Turning to “Trans-1-(4-Chloro-phenyl)-3-(4-{2-[4-(4-fluoro-benzoyl)-piperidin-1-yl]-ethyl}-cyclohexyl)-urea [Example 39]”, the Ki in experiment [1] stood at 3 nM; in experiment [2], 2 nM; in experiment [3] it was 1840 nM.

In the case of `COCCC(=O)N[C@H]1CC[C@H](CCN2CCC(C(=O)c3ccc(F)cc3F)CC2)CC1` [Example 58, N-trans (4-{2-[4-(2,4-Difluoro-benzoyl)-piperidin-1-yl]-ethyl}-cyclohexyl)-3-methoxy-propionamide], the values for the Ki in experiment [1], in experiment [2] and in experiment [3] were 80 nM, 19 nM and 3540 nM, respectively.

Consider `O=C(N[C@H]1CC[C@H](CCN2CCC(C(=O)c3ccc(F)cc3)CC2)CC1)c1ccc(Cl)cc1Cl` [Example 22, 2,4-Dichloro-N-trans (4-{2-[4-(4-fluoro-benzoyl)-piperidin-1-yl]-ethyl}-cyclohexyl)-benzamide], for which the results for the Ki in experiment [1], in experiment [2] and in experiment [3] were 4 nM, 15 nM and 149 nM, respectively.

Take `COc1cc(CC(=O)N[C@H]2CC[C@H](CCN3CCC(C(=O)c4ccc(F)cc4)CC3)CC2)cc(OC)c1` [Example 30A37, 2-(3,5-Dimethoxy-phenyl)-N-trans (4-{2-[4-(4-fluoro-benzoyl)-piperidin-1-yl]-ethyl}-cyclohexyl)-acetamide]: the results for the Ki in experiment [1], in experiment [2] and in experiment [3] were 11 nM, 29 nM and 2000 nM, respectively.

For `CC(=O)N[C@H]1CC[C@H](CCN2CCC(C(=O)c3ccccc3Cl)CC2)CC1` [Example 72, N-trans (4-{2-[4-(2-Chloro-benzoyl)-piperidin-1-yl]-ethyl}-cyclohexyl)-acetamide], the Ki in experiment [1] was found to be 26 nM; in experiment [2] it was 39 nM; in experiment [3] it was 2130 nM.
